Tests used:
reactive oxygen species = settings: systemic injection; cited from earlier work
COX-2 = settings: animal models of Parkinson's disease; cited from earlier work
msrA = biological target: T1, msrA (Bos taurus, UniProt P54149); test: Calorimetric test of whether a compound is turned over by msrA (protein injected into compound solution); type: biochemical, bovine; settings: compound at 500 μM or as high as possible, three injections of msrA, heat evolved
T1 construct: made in house; host or cells: E. coli
T1 sequence (P54149 21-233): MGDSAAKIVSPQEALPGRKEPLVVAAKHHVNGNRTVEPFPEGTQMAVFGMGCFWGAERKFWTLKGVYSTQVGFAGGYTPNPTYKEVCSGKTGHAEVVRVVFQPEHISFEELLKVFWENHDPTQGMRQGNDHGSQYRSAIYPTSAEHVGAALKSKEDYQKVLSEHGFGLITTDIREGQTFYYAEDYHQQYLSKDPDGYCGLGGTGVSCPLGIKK
Experimental: Compounds 105-108 in the list were only soluble below 1 mM. However, an assessment was made as to whether those compounds were substrates for msrA (i.e., whether they are turned over by the enzyme), by employing the following experimental protocol. The compounds were dissolved in the usual buffer [50 mM Tris, 50 mM KCl, 5 mM TCEP, pH 7.50] at a concentration of 500 μM, or as high as possible. 1.8 ml of this solution was loaded into the calorimetric cell, while the syringe was filled with a […] solution of msrA in the same buffer. After the stirring and equilibration period has elapsed, three injections of protein were made, spaced out over 20 minute intervals. If the compound is a substrate for msrA, a large amount of heat will be evolved after the first injection (several millicalories generated over ˜10 minutes), while the other two injections of protein will register only small heats (tens of microcalories), before the signal quickly returns to the baseline. These smaller heats represent the heat of dilution of the protein into the solution in the calorimetric cell.
Once the substrate has been fully reacted and the heat output has returned to the baseline, further injections of protein show only the heat of dilution of the enzyme.

[1] = Solubility of test compounds in assay buffer; type: physicochemical; settings: Tris assay buffer, pH 7.5, aqueous buffer; 50 mM Tris, 50 mM KCl, 5 mM TCEP, pH 7.50
bovine msrA = biological target: T2, bovine msrA (Bos taurus, UniProt P54149); test: Methionine sulfoxide reductase assay by isothermal titration calorimetry (kcat, KM); type: biochemical; settings: substrate for msrA; 300 nM enzyme, pH 7.50, 37° C
T2 construct: made in house; host or cells: E. coli
T2 sequence (P54149 21-233): T1 sequence (P54149 21-233)
Experimental: (§1) The compounds of the present invention may be assayed for activity both in vitro and in vivo. For example, in order to assay whether a compound of this invention will serve as a regenerable Msr substrate, the compound is titrated in several increments into a solution of the enzyme msrA (pH 7.5, 37 °C, reducing buffer) contained in a microcalorimeter. The heat (ΔH) from the reaction is measured at each step. These power output levels are converted into rates of reaction according to Todd & Gomez, Anal. Biochem., 296, pp. 1-9 (2001), and the resulting rates are plotted versus substrate concentration. From this plot, the kcat and KM are determined according to standard Michaelis-Menton enzyme kinetics.
An assay using isothermal titration calorimetry was developed. […] The quicker such compounds are converted back to their reduced form by MSR, the more equivalents of ROS they will eliminate before being cleared from the body. The assay was used to determine the enzymatic parameters (kcat and KM) of the compounds of this invention interacting with msrA under standard conditions. Chemical modifications that increase kcat, a measure of how quickly a compound was turned over by the enzyme, and/or decrease its KM, a measure of how readily a compound bound to the enzyme, represent improvements in that compound's ability to be efficiently processed by msrA.
In order to run the assay bovine msrA was overexpressed in E. coli and purified according to the method described in Lowther et al., Proc. Natl. Acad. Sci. USA, 97, pp. 6463-6468 (2000), the disclosure of which is herein incorporated by reference. A 300 nM solution of the enzyme was prepared in 50 mM Tris, 50 mM KCl, 4 mM tris(carboxyethyl)phosphine (TCEP), pH 7.50. A 25 mM solution of the compound to be tested was prepared in the identical buffer. A 1.8 ml aliquot of the msrA enzyme solution was loaded into the cell of a VP-ITC instrument from Microcal Corp. (Northampton, Mass.). The test compound solution was loaded into the syringe, and the entire system was allowed to come to thermal equilibrium at 37° C. while stirring at a rate of 300 rpm. Once equilibrium was established, a series of small injections ([…]) of the compound into the protein solution were made, and the increasing power output of the enzyme was measured after each injection, relative to the instrument baseline. These power output levels were converted into rates of reaction, according to Todd & Gomez, Anal. Biochem., 296, pp. 1-9 (2001), the disclosure of which is herein incorporated, and the resulting rates were plotted against substrate concentration. From this plot, the kcat and KM were determined with a computer fitting routine according to standard Michaelis-Menton enzyme kinetics.
To ensure that the compounds would be substrates for MSR, we determined the substrate specificities of MSR by choosing test compounds that contained a sulfoxide moiety and testing those compounds for MSR activity in the enzyme assay described below. Table 1 sets forth compounds that were tested for their ability to serve as MSR substrates using the isothermal titration calorimetry assay described above: […]

[2] = substrate: CC1=C(CC(=O)O)c2cc(F)ccc2/C1=C\c1ccc([S+](C)[O-])cc1; test: purified protein, by the assay type; settings: other: substrate for msrA, 300 nM enzyme, pH 7.50, 37° C, pH 7.5
[3] = substrate: C[S+]([O-])CC[C@H](N)C(=O)O; test: purified protein, by the assay type; settings: other: substrate for msrA, 300 nM enzyme, pH 7.50, 37° C, pH 7.5
[4] = substrate: CC1=C(CC(=O)NC(CC[S+](C)[O-])C(=O)O)c2cc(F)ccc2/C1=C\c1ccc([S+](C)[O-])cc1; test: purified protein, by the assay type; type: biochemical, bovine; settings: other: substrate for msrA, 300 nM enzyme, pH 7.50, 37° C, pH 7.5
Experimental: as §1
An assay using isothermal titration calorimetry was developed. […] Chemical modifications that increase kcat, a measure of how quickly a compound was turned over by the enzyme, and/or decrease its KM, a measure of how readily a compound bound to the enzyme, represent improvements in that compound's ability to be efficiently processed by msrA. […]
To ensure that the compounds would be substrates for MSR, we determined the substrate specificities of MSR by choosing test compounds that contained a sulfoxide moiety and testing those compounds for MSR activity in the enzyme assay described below. […]

For `CC(C)(C)[N+]([O-])=Cc1ccccc1` [phenyl-N-tert-butylnitrone (PBN), phenyl-N-tert-butylnitrone], the “relief of SNL-induced mechanical allodynia” value (reactive oxygen species) is given as “relieves SNL-induced mechanical allodynia in a dose-dependent manner”.

In the case of `CS(=O)(=O)c1ccc(C2=C(c3ccccc3)C(=O)OC2)cc1` [Vioxx], the “partial recovery of dopamine production” value (COX-2) is given as ~20%.

For `C[S+]([O-])CC[C@H](N)C(=O)O` (some centres unmarked) [compound 100, methionine sulfoxide], the “substrate for msrA (turned over by the enzyme)” value (msrA) was “produces the large heat output”.

In the case of `C[S+]([O-])c1ccc(-c2cc(C(F)(F)F)nn2-c2ccc(S(N)(=O)=O)cc2)cc1` (centres unmarked) [compound 105], the solubility [1] is reported as < 1000 µM.

Molecule `C[S+]([O-])c1ccccc1` (centres unmarked) [compound 102, methyphenylsulfoxide] has a Kcat (bovine msrA) of 0.46 s⁻¹ and a Km (bovine msrA) of 750 µM.

In the case of `CS(=O)(=O)CC[C@H](N)C(=O)O` [compound 109, methionine sulfone], the Kcat (bovine msrA) is reported as 0 s⁻¹, the “substrate for msrA (turned over by the enzyme)” value (msrA) is reported as “does not get turned over by msrA” and the “substrate for msrA (turned over by the enzyme)” value (msrA; listed as methionine sulfone) is reported as “not a substrate for msrA”.

Work on `C[S+](C)[O-]` [compound 103, DMSO] yielded a Kcat (bovine msrA) of 0.064 s⁻¹ and a Km (bovine msrA) of 314 µM.

For `CSc1ccc(/C=C2/C(C)=C(CC(=O)NC(CC[S+](C)[O-])C(=O)O)c3cc(F)ccc32)cc1` (centres unmarked) [compound 107], the solubility [1] was < 1000 µM.

In the case of `C[S+]([O-])c1ccc(-c2cc(C(=O)O)nn2-c2ccc(S(N)(=O)=O)cc2)cc1` (centres unmarked) [compound 108], the solubility [1] is reported as < 1000 µM.

With `C[S+]([O-])c1ccc(CC(=O)O)cc1` (centres unmarked) [compound 106] the solubility [1] was < 1000 µM.

B1: bovine msrA (Bos taurus) (protein)
chain: T1 sequence (P54149 21-233)
notes: made in house; host or cells: E. coli
B1 showed a Km [2] of 112 µM, a kcat [2] of 0.56 s⁻¹ and a Km [3] of 504 µM. It also gave a kcat [3] of 0.27 s⁻¹, a Km [4] of 7.6 µM and a kcat [4] of 0.27 s⁻¹.

— patent publication US20060014813A1, “Pharmaceutical compounds that regenerate in vivo” (priority 2003, published 2006)
